Here are results for ten compounds from article PMC10222686, “Synthesis and Molecular Docking Studies of Alkoxy- and Imidazole-Substituted Xanthones as α-Amylase and α-Glucosidase Inhibitors” (Molecules, 2023).

Data set [1] addresses α-Glucosidase. Particulars: Figure 1; reference not given; cited from earlier work.
The subject of data set [2] is α-glucosidase. Put plainly: α-Glucosidase inhibition assay (p-NPG substrate). The class given is biochemical, Saccharomyces cerevisiae. To be noted: mean ± SD, n = 4.
Method: The inhibitory activity of the compounds on α-glucosidase inhibition was quantified according to the method described by Salehi et al., with slight modifications [64]. A reaction was prepared by mixing 20 µL α-glucosidase solution (0.5 unit/mL), 120 µL 0.1 M phosphate buffer (pH 6.9), and 10 µL of the samples at concentrations from 400 µM to 4.0 µM. The solution was incubated in a 96-well microplate at 37 °C for 15 min. The enzymatic reaction was initiated by adding 20 µL of 5 mM p-NPG solution to 0.1 M phosphate buffer (pH 6.9), followed by incubation at 37 °C for 15 min. The reaction was stopped by adding 80 µL of 0.2 M sodium carbonate solution, and absorbance was read at 405 nm in a microplate reader (Epoch®, BioTek Instrument, Winooski, EUA). The reaction system without any test compounds was used as control, whereas the system without α-glucosidase served as blank for correcting background absorbance. The rate of α-glucosidase inhibition exerted by each sample was calculated with Equation (1):(1) % inhibition=Control absorbance−sample absorbance/Control absorbance×100
(§2) All measurements were performed in quadruplicate and the values are expressed as the mean ± standard deviation.
Data set [3] in a line: DPPH radical scavenging assay. To be noted: mean ± SD, n = 4. As for the experimental part:
The scavenging of free radicals by the synthesized compounds was assessed based on the previously reported DPPH radical assay, with slight modifications. The reaction mixture consisted of 50 µL of compound in DMSO at various concentrations (from 2.5 mM to 0.2 mM) and 150 µL of DPPH solution at 133.33 µM in absolute ethanol. The reaction components were added at a ratio of 1:3 (v/v). The mixture was incubated at 37 °C for 30 min before absorbance was read at 517 nm using a microplate reader (Epoch, BioTek®). Butylhydroxytoulene (BHT) served as the positive control. Scavenging capacity (%) is expressed as the percentage decrease in DPPH. SC% = [(Acontrol − Atest)/Acontrol] × 100 where Acontrol is absorbance of the DPPH solution (control) and Atest is the absorbance of the solution of DPPH and one of the compounds.
(The DPPH test is a chemical assay of radical scavenging.)

The subject of data set [4] is α-glucosidase. As to the kind of experiment: Enzymatic kinetic study on α-glucosidase (Lineweaver–Burk). The data set is classed as biochemical, Saccharomyces cerevisiae. To be noted: for Type of inhibition of α-glucosidase: Lineweaver–Burk plots; for Ki: p-NPG 0.5–5.0 mM, nonlinear regression. As for the experimental part: The X-axis values represent the reciprocal for the α-glucosidase substrate, p-nitrophenyl-α-D-glucopyranoside (p-NPG), while for the α-amylase substrate they represent starch, thus being 1/(starch). The Y-axis values are the reciprocal of the reaction velocity (Vo), thus being 1/Vo.
(§1) To explore the type of enzyme inhibition, kinetic studies were carried out with α-glucosidase and α-amylase using a methodology such as that described in the inhibitory activity assays. The alkoxy-substituted xanthones were evaluated at four different concentrations according to their IC50. Various concentrations of substrates were used for each of the enzymes in the range of 0.5–5.0 mM for p-NPG in α-glucosidase and 0.1–1.0% for α-amylase. The type of inhibition for each test compound was determined by utilizing double reciprocal plots. Inhibition constants (KI) were calculated from substrate versus reaction rate curves using nonlinear regression of the enzyme inhibition kinetic function.

The target in data set [5] is T1, α-amylase (Sus scrofa, UniProt P00690).
T1 construct: purchased Sigma-Aldrich; host or cells: porcine pancreas
T1 sequence (P00690 16-511): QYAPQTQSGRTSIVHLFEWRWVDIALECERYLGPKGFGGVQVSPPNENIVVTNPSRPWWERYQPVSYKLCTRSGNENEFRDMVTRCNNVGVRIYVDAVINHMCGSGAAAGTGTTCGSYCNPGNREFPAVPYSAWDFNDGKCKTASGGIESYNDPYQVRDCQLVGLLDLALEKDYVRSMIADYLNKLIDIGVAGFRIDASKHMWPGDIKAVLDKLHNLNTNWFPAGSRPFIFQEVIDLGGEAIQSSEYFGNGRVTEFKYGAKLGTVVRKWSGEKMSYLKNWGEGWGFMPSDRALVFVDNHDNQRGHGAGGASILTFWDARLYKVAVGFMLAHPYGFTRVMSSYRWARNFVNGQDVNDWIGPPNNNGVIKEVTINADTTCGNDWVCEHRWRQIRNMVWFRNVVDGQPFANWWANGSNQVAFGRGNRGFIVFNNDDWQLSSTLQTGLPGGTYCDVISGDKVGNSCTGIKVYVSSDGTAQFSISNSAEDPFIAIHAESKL
As to the kind of experiment: α-Amylase inhibition assay (starch/DNS).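 As to all read-outs here: reducing sugar measured by DNS colour at 540 nm, inhibition relative to enzyme reaction lacking test compound, blank without enzyme subtracted for background.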 The class given is biochemical, porcine. To be noted: mean ± SD, n = 4; for inhibition at 100 µM: NI = no inhibition; for IC50: compounds precipitate at 200 µM.
Method: α-Amylase inhibitory activity was quantified according to the method developed by Chokki et al., with some modifications [65]. […] Finally, 100 µL of 3,5-dinitrosalicylic acid (DNS) was added and heated at 100 °C for 20 min, and absorbance was then read at 540 nm in a microplate reader (Epoch, BioTek®). The reaction system without any test compound was used as the control, and the system without α-amylase served as a blank for correcting background absorbance. The percentage of α-amylase inhibition was calculated for each sample with Equation (2):(2) % inhibition=Control absorbance−sample absorbance/Control absorbance×100
as §2

The target in data set [6] is T1, α-amylase. As to the kind of experiment: Enzymatic kinetic study on α-amylase (Lineweaver–Burk). The class given is biochemical, porcine. Particulars: for Type of inhibition of α-amylase: Lineweaver–Burk plots; for Ki: starch 0.1–1.0%, nonlinear regression. As for the experimental part:
These KI values indicate that 6c has greater affinity for the enzyme.
as §1

By IC50 is commonly meant the concentration that gives 50% inhibition. With `Clc1ccc(-c2nc(-c3ccccc3)n3c2-c2[nH]c4ccccc4c2CC3)cc1` [Carbazole-imidazole], the IC50 at α-Glucosidase [1] is 81 µM.
As usually defined, the melting point is the temperature, or range, at which the solid turns liquid. A word on the Ki: it is the dissociation constant of the complex between target and ligand, obtained from inhibition or displacement. A low value points to a stronger hold on the target. Usually inhibition stands for the percentage by which the read-out fell short of the control. Read a high inhibition as a strong effect. Regarding `COc1cc2oc3ccccc3c(=O)c2cc1OCC(=O)c1ccc(Cl)cc1` [Compound 6c, 2-(2-(4-Chlorophenyl)-2-oxoethoxy)-3-methoxy-9H-xanthen-9-one], the melting point lay in the range of 175 to 176 °C. Also, in the data set with α-glucosidase [2], the “α-Glucosidase Inhibition (%) at 400 µM” value worked out at 92.6 ± 0.11% and inhibition was half-maximal at 16 ± 0.03 µM (IC50). The “% DPPH Scavenging Activity (2.5 mM)” value in data set [3] was 8.7 ± 0.67 ^G %. In the data set with α-glucosidase [4], the “Type of inhibition of α-glucosidase” value was “mixed mode” and the Ki worked out at 21.5 µM. Besides, at α-amylase [5], the inhibition at 100 µM was found to be 64.8 ± 0.15% and the concentration for half-maximal inhibition (IC50) is 76.7 ± 0.03 µM. At α-amylase [6], the “Type of inhibition of α-amylase” value is “competitive type of inhibitor” and the Ki came to 63.2 µM.
With `C=CCc1c(OCCCCBr)c(OC)cc2oc3ccccc3c(=O)c12` [Compound 9b, 1-Allyl-2-(4-bromobutoxy)-3-methoxy-9H-xanthen-9-one], in the data set on α-glucosidase [2], the “α-Glucosidase Inhibition (%) at 400 µM” value amounted to 96.3 ± 0.2% and the IC50 amounted to 4 ± 0.007 µM. For the same compound, in data set [3], the “% DPPH Scavenging Activity (2.5 mM)” value is 17.6 ± 1.17 ^D %. In addition, in the data set on α-glucosidase [4], the “Type of inhibition of α-glucosidase” value is “mixed mode” and the affinity, expressed as Ki, was 1.25 µM. On α-amylase [5], 100 µM produced 3.87 ± 0.11% inhibition and the IC50 is above 200 µM.
For `COc1cc2oc3ccccc3c(=O)c2cc1OCCCCn1ccnc1-c1ccc(Cl)cc1` [Compound 10c, 2-(4-(2-(4-Chlorophenyl)-1H-imidazol-1-yl)butoxy)-3-methoxy-9H-xanthen-9-one], in the data set on α-glucosidase [2], the “α-Glucosidase Inhibition (%) at 400 µM” value was 95.1 ± 0.15% and the IC50 was 232.7 ± 0.11 µM. In data set [3], the “% DPPH Scavenging Activity (2.5 mM)” value is recorded as 11.6 ± 1.54 ^F,G %. In the data set on α-glucosidase [4], the “Type of inhibition of α-glucosidase” value is listed as “mixed mode” and the Ki was found to be 139 µM. On α-amylase [5], this compound yielded an inhibition at 100 µM of 99.5 ± 0.1% and an IC50 of 5.4 ± 0.07 µM. At α-amylase [6], the “Type of inhibition of α-amylase” value was “mixed-type inhibitor” and the Ki came out at 2.2 µM.
`C=CCc1c(OCC(O)Cn2ccnc2)c(OC)cc2oc3ccccc3c(=O)c12` (stereo not drawn) [Compound 12d, 1-Allyl-2-(2-hydroxy-3-(1H-imidazol-1-yl)propoxy)-3-methoxy-9H-xanthen-9-one] yielded a melting point of 187 to 189 °C. Besides, in the data set on α-glucosidase [2], the “α-Glucosidase Inhibition (%) at 400 µM” value was 52.2 ± 0.87% and half-maximal inhibition (IC50) was put at 400.2 ± 0.24 µM. The “% DPPH Scavenging Activity (2.5 mM)” value in data set [3] is on record as 10.1 ± 0.87 ^G %. Besides, at α-amylase [5], testing at 100 µM gave an inhibition of 1.5 ± 0.1% and the half-maximal inhibitory concentration (IC50) was above 200 µM.
For `C=CCc1c(OCC(O)Cn2ccnc2-c2ccccc2)c(OC)cc2oc3ccccc3c(=O)c12` (stereo not drawn) [Compound 12e, 1-Allyl-2-(2-hydroxy-3-(2-phenyl-1H-imidazol-1-yl)propoxy)-3-methoxy-9H-xanthen-9-one], the melting point lay within 187 to 189 °C. For the same compound, in the data set with α-glucosidase [2], the “α-Glucosidase Inhibition (%) at 400 µM” value worked out at 96.6 ± 1.45% and the half-inhibitory concentration (IC50) came to 104.9 ± 0.01 µM. For the same compound, in data set [3], the “% DPPH Scavenging Activity (2.5 mM)” value is recorded as 17.6 ± 1.14 ^D %. Moreover, at α-amylase [5], the inhibition at 100 µM came to 2.4 ± 0.15% and the IC50 is above 200 µM.
The compound `C=CCc1c(OCC(O)Cn2ccnc2-c2ccc(Cl)cc2)c(OC)cc2oc3ccccc3c(=O)c12` (stereo not drawn) [Compound 12f, 1-Allyl-2-(3-(2-(4-chlorophenyl)-1H-imidazol-1-yl)-2-hydroxypropoxy)-3-methoxy-9H-xanthen-9-one] came in with a melting point of 116 to 118 °C. Moreover, in the data set with α-glucosidase [2], the “α-Glucosidase Inhibition (%) at 400 µM” value is listed as 99.1 ± 1.31% and the IC50 came to 71.9 ± 0.08 µM. Moreover, the “% DPPH Scavenging Activity (2.5 mM)” value in data set [3] is 18.1 ± 1.57 ^D %. On α-amylase [5], this compound registered an inhibition at 100 µM of 4.7 ± 0.32% and an IC50 above 200 µM.
`O=c1c2c(O)cc(O)cc2oc2cc(O)c(-c3c(O)ccc4ccc(O)cc34)c(O)c12` [Dihydroxynaphtalenyl-xanthone]: at α-Glucosidase [1], the IC50 was 47.6 µM.
In the case of `Cc1cc(C)n(-c2ccc(-n3c(-c4ccccc4)nc(-c4ccccc4)c3-c3ccccc3)cc2)n1` [Imidazole-pyrazole], at α-Glucosidase [1], the IC50 was 105 µM.
Take `COc1c(O)cc2oc3cc(O)c(CC=C(C)C)c(O)c3c(=O)c2c1CC=C(C)C` [α-Mangostin, α-mangostin]: the IC50 at α-Glucosidase [1] is 5 µM.
